# According to PMC6008168 (Bioorganic & medicinal chemistry letters, 2017):
# Legend:
# [1] = Permeability, PAMPA assay; format: in vitro ADME
# PPARδ = target: T1, PPARδ (Homo sapiens, UniProt Q03181); assay: PPARδ transcription 2-hybrid assay; format: cell-based; details: up to 100 μM
# T1 sequence (Q03181 211-439 limits assumed): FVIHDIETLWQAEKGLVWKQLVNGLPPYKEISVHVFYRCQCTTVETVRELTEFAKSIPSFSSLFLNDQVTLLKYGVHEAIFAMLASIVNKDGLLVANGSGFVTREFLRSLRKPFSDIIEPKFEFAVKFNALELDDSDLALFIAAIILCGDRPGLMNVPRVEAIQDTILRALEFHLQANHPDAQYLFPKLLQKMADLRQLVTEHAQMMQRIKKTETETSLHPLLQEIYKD
# VDR = target: T2, VDR (Homo sapiens, UniProt P11473); assay: VDR transcription assay; format: cell-based; details: compared with GW0742
# T2 sequence (P11473 1-427): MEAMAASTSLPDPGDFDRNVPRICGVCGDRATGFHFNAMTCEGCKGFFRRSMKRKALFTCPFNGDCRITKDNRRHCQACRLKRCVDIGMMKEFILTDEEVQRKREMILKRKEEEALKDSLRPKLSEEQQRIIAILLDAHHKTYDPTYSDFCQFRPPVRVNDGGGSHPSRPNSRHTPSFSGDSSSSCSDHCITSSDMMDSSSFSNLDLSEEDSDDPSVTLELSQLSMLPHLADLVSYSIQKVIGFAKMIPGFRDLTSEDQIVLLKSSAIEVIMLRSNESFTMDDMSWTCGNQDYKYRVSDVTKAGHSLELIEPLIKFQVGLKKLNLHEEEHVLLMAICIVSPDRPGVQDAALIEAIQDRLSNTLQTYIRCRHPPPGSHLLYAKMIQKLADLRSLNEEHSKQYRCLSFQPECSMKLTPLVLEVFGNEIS
# Toxicity, Cell-TiterGlo = format: cell-based; details: n.o.= not observed
structure (smiles),measurement,setting,value
COC(=O)c1ccccc1OCc1oc(-c2ccccc2OC)nc1C [4a],Papp,[1],4680 nm/s
COC(=O)c1ccccc1OCc1oc(-c2cccc(OC)c2)nc1C [4b],Papp,[1],5130 nm/s
COC(=O)c1cccc(OCc2oc(-c3ccccc3OC)nc2C)c1 [5a],activation of PPARδ-mediated transcription (in words),PPARδ,inability to activate
same,increased potency in respect to GW0742 (VDR antagonism),VDR,10 fold
same,Papp,[1],3800 nm/s
COC(=O)c1cccc(OCc2oc(-c3cccc(OC)c3)nc2C)c1 [5b],Papp,[1],4270 nm/s
COC(=O)c1ccc(OCc2oc(-c3ccccc3OC)nc2C)cc1 [6a],Papp,[1],4470 nm/s
COC(=O)c1ccc(OCc2oc(-c3cccc(OC)c3)nc2C)cc1 [6b],Papp,[1],3720 nm/s
COC(=O)Cc1ccc(OCc2oc(-c3ccccc3OC)nc2C)cc1 [7a],Papp,[1],2750 nm/s
COC(=O)Cc1ccc(OCc2oc(-c3cccc(OC)c3)nc2C)cc1 [7b],activation of PPARδ-mediated transcription (in words),PPARδ,without activating
same,Papp,[1],4790 nm/s
COC(=O)CCc1ccc(OCc2oc(-c3ccccc3OC)nc2C)cc1 [8a],Papp,[1],4570 nm/s
COC(=O)CCc1ccc(OCc2oc(-c3cccc(OC)c3)nc2C)cc1 [8b],Papp,[1],4570 nm/s
COc1ccccc1-c1nc(C)c(COc2ccccc2C(=O)O)o1 [9a],Papp,[1],2340 nm/s
COc1cccc(-c2nc(C)c(COc3ccccc3C(=O)O)o2)c1 [9b],Papp,[1],2340 nm/s
COc1ccccc1-c1nc(C)c(COc2cccc(C(=O)O)c2)o1 [10a],% Toxicity at 100 μM,"Toxicity, Cell-TiterGlo",n.o.
same,Papp,[1],2630 nm/s
COc1cccc(-c2nc(C)c(COc3cccc(C(=O)O)c3)o2)c1 [10b],Papp,[1],1320 nm/s
COc1ccccc1-c1nc(C)c(COc2ccc(C(=O)O)cc2)o1 [11a],% Toxicity at 100 μM,"Toxicity, Cell-TiterGlo",n.o.
same,Papp,[1],2140 nm/s
COc1cccc(-c2nc(C)c(COc3ccc(C(=O)O)cc3)o2)c1 [11b],Papp,[1],1700 nm/s
COc1ccccc1-c1nc(C)c(COc2ccc(CC(=O)O)cc2)o1 [12a],% Toxicity at 100 μM,"Toxicity, Cell-TiterGlo",n.o.
same,Papp,[1],1910 nm/s
COc1cccc(-c2nc(C)c(COc3ccc(CC(=O)O)cc3)o2)c1 [12b],Papp,[1],1320 nm/s
COc1ccccc1-c1nc(C)c(COc2ccc(CCC(=O)O)cc2)o1 [13a],Papp,[1],2570 nm/s
COc1cccc(-c2nc(C)c(COc3ccc(CCC(=O)O)cc3)o2)c1 [13b],Papp,[1],1200 nm/s
